# Assay results published in patent US5401490A, “Markers of tissue hypoxia” (priority 1989, dated 1995).
# Columns and labels:
# [1] = Long term storage in solution; assay type: physicochemical
# Description: Both IAZA and IAZG are synthesised, in high yield, from commercial precursors (FIG. 1) and undergo high-yield isotope exchange reactions with radioiodine to produce the required radiolabelled test compounds. […] Therefore, the compounds were stored as a dry residue in multidose vials under refrigeration and were reconstituted with the appropriate solvent just prior to use. IAZP is similarly synthesised. It will be known to those skilled in the art that other radio halogens may be similarly employed in the exchange reaction.
# [2] = test system: EMT-6 cells; test: Hypoxic cell radiosensitizing ability (post-irradiation survival); assay type: cell-based, mouse
# Description: Cell cultures were examined under oxic (air) and hypoxic incubation, with various concentrations of test drug, and at several doses of radiation.
# [3] = test system: BALB/C mice bearing subcutaneous EMT-6 tumors; test: Tissue distribution of radioactivity after intravenous injection; assay type: in vivo; settings: for Tissue to Blood Ratio, Intestine / Tissue to Blood Ratio, Kidney / Tissue to Blood Ratio, Liver / Tissue to Blood Ratio, Lung / Tissue to Blood Ratio, Muscle / Tissue to Blood Ratio, Stomach / Tissue to Blood Ratio, Tumor: i.v.
# Description: Tables 1 and 2 show the percent of injected IAZG and IAZA respectively per gram of wet tissue for selected tissues excised from BALB/C mice bearing EMT-6 tumors. This tumor model is known to have a high hypoxic fraction (0.33) (16). […] Hepatobiliary excretion may play a role in blood clearance as evidenced by elevated liver radioactivity and the appearance of activity in the intestine. Some oxidative or reductive metabolites of the 2-nitroimidazoles may also become bound to liver tissue, as was postulated in an in vivo study with ^14 C-MISO (6). This supposition is supported by the persistence of liver radioactivity at longer time periods. […] At 8 and 24 hours thyroid levels of IAZG are 7.2 and 30.9% of the total body activity and for IAZA they are 7.9 and 33.8% of total body activity. EXAMPLE 11 TISSUE DISTRIBUTION AND EXCRETION Tumor propagation of EMT-6 tumors in BALB/C mice was accomplished by subcutaneous injection of a cell suspension (10^5 cells in 0.1 mL) as described previously (10). Tumors reached about 10 mm in diameter (≈0.5 g) at 12 to 14 days, at which time each animal was given a bolus intravenous injection of ^125 I-labelled test drug via the tail vein (40 to 60 kBq in 0.1 mL). At set time periods the animals were asphyxiated with CO2 and exsanguinated via cardiac puncture. Tissues were dissected, weighed wet into vials and counted for ^125 I-activity. Whole-body activity was determined by summation of total activity in tissues and in residual carcass, and blood activity was determined from the blood aliquot, assuming blood to be 6.5% of the total body weight. EXAMPLE 12 Male BALB/c mice (20-25 g) were inoculated subcutaneously in the left flank with a suspension of murine EMT-6 cells (10^5 cells in 0.1 mL) (14). After 12 to 14 days, when the tumors reached the desired size (8-10 mm diameter), each mouse received a single intravenous (iv) injection of ^125 I-IAZA (59 kBq in 0.1 mL). […] Heart, lung, liver, spleen, muscle, bone, thyroid, kidney, stomach, small intestine, tail, tumor and skin were removed upon necropsy, weighed and analyzed for ^125 I using a Beckman Model 8000 gamma scintillation counter. The remaining carcass mass was also weighed and radioassayed.
smiles,measurement,setting,value
"O=[N+]([O-])c1nccn1[C@@H]1O[C@H](CI)[C@H](O)[C@H](O)[C@H]1O [IAZG, 1-(6-iodo-6-deoxy-β-D-galactopyranosyl)-2-nitroimidazole]",stability on long term storage in solution,[1],some decomposition of the pure compounds
same,sensitizer enhancement ratio (SER),"[2]; 50 μM, 90% cell kill, hypoxic",about 1.8
same,sensitisation to lethal effects of ionising radiation,[2]; in words,sensitise these cells to the lethal effects of ionising radiation
same,"in vitro radiosensitizer efficiency, comparison",[2]; vs azomycin nucleoside class,most efficient in vitro radiosensitizer of the azomycin nucleoside class produced to date
same,"Tissue to Blood Ratio, Intestine",[3]; 0.25 h,3.65
same,"Tissue to Blood Ratio, Kidney",[3]; 0.25 h,8.58
same,"Tissue to Blood Ratio, Liver",[3]; 0.25 h,3.00
same,"Tissue to Blood Ratio, Lung",[3]; 0.25 h,1.51
same,"Tissue to Blood Ratio, Muscle",[3]; 0.25 h,0.72
same,"Tissue to Blood Ratio, Stomach",[3]; 0.25 h,1.79
same,"Tissue to Blood Ratio, Tumor",[3]; 0.25 h,0.95
same,"Tissue to Blood Ratio, Intestine",[3]; 0.50 h,3.19
same,"Tissue to Blood Ratio, Kidney",[3]; 0.50 h,8.07
same,"Tissue to Blood Ratio, Liver",[3]; 0.50 h,2.66
same,"Tissue to Blood Ratio, Lung",[3]; 0.50 h,1.31
same,"Tissue to Blood Ratio, Muscle",[3]; 0.50 h,0.63
same,"Tissue to Blood Ratio, Stomach",[3]; 0.50 h,1.92
same,"Tissue to Blood Ratio, Tumor",[3]; 0.50 h,1.31
same,"Tissue to Blood Ratio, Intestine",[3]; 1 h,1.42
same,"Tissue to Blood Ratio, Kidney",[3]; 1 h,5.56
same,"Tissue to Blood Ratio, Liver",[3]; 1 h,1.82
same,"Tissue to Blood Ratio, Lung",[3]; 1 h,0.90
same,"Tissue to Blood Ratio, Muscle",[3]; 1 h,0.48
same,"Tissue to Blood Ratio, Stomach",[3]; 1 h,1.64
same,"Tissue to Blood Ratio, Tumor",[3]; 1 h,1.47
same,"Tissue to Blood Ratio, Intestine",[3]; 2 h,1.48
same,"Tissue to Blood Ratio, Kidney",[3]; 2 h,5.06
same,"Tissue to Blood Ratio, Liver",[3]; 2 h,2.55
same,"Tissue to Blood Ratio, Lung",[3]; 2 h,1.13
same,"Tissue to Blood Ratio, Muscle",[3]; 2 h,0.62
same,"Tissue to Blood Ratio, Stomach",[3]; 2 h,2.61
same,"Tissue to Blood Ratio, Tumor",[3]; 2 h,1.45
same,"Tissue to Blood Ratio, Intestine",[3]; 4 h,1.04
same,"Tissue to Blood Ratio, Kidney",[3]; 4 h,4.00
same,"Tissue to Blood Ratio, Liver",[3]; 4 h,1.51
same,"Tissue to Blood Ratio, Lung",[3]; 4 h,1.16
same,"Tissue to Blood Ratio, Muscle",[3]; 4 h,0.49
same,"Tissue to Blood Ratio, Stomach",[3]; 4 h,1.85
same,"Tissue to Blood Ratio, Tumor",[3]; 4 h,1.56
same,"Tissue to Blood Ratio, Intestine",[3]; 8 h,1.05
same,"Tissue to Blood Ratio, Kidney",[3]; 8 h,2.47
same,"Tissue to Blood Ratio, Liver",[3]; 8 h,1.24
same,"Tissue to Blood Ratio, Lung",[3]; 8 h,0.98
same,"Tissue to Blood Ratio, Muscle",[3]; 8 h,0.36
same,"Tissue to Blood Ratio, Stomach",[3]; 8 h,2.50
same,"Tissue to Blood Ratio, Tumor",[3]; 8 h,1.34
same,thyroid levels,[3]; 8 hours,7.2 % of the total body activity
same,"Tissue to Blood Ratio, Intestine",[3]; 24 h,0.83
same,"Tissue to Blood Ratio, Kidney",[3]; 24 h,1.52
same,"Tissue to Blood Ratio, Liver",[3]; 24 h,1.32
same,"Tissue to Blood Ratio, Lung",[3]; 24 h,1.26
same,"Tissue to Blood Ratio, Muscle",[3]; 24 h,0.38
same,"Tissue to Blood Ratio, Stomach",[3]; 24 h,0.87
same,"Tissue to Blood Ratio, Tumor",[3]; 24 h,1.41
same,thyroid levels,[3]; 24 hours,30.9 % of the total body activity
same,injected dose in tumor at maximal tumor to blood ratio,[3]; at 4 h,0.23 % of the injected dose
same,maximal tumor to blood ratio,[3]; at 4 h,1.56
same,deiodination (increase in thyroid radioactivity),[3]; longer periods (>4 h),evidence of deiodination at longer periods (>4 h)
